Laboratory results: US20250352511A1 (CHINOOK THERAPEUTICS, INC., priority 2022, published 2025)
Where two headings read alike, the source gives them in different places.

What was measured:
[1] = 0.75 mg dose; DKD; PK-PD exposure-response model; cited from earlier work
[2] = test system: patients with diabetic kidney disease; conditions: cited from earlier work
[3] = test system: patients with FSGS; assay: Phase 2 open-label basket study, FSGS cohort: urine protein to creatinine ratio (UPCR); format: in vivo, human; conditions: 0.75 mg atrasentan daily; week 24 vs week 0; twenty patients with FSGS
Text: Subjects will be enrolled in disease specific cohorts as follows: • Cohort 1: IgAN (with UPCR 0.5 to <1.[…]) • Cohort 2: FSGS • Cohort 2b: FSGS (dose escalation) • Cohort 3: Alport syndrome • Cohort 4: DKD • Cohort 5: FSGS (higher dose cohort) Subjects in Cohorts 2 and 5 (FSGS) include the following characteristics: • Biopsy-confirmed FSGS or documentation of a genetic mutation in a podocyte protein associated with FSGS. […] Urine Protein to Creatinine Ratio (UPCR) will be assessed. Assessment of proteinuria plays an important role in the diagnosis of kidney disease and in monitoring disease activity (Zhao, 2016). UPCR is widely used for proteinuria evaluation in clinical practice. UPCR will be measured using FMV urine sample and a 24-hour urine collection at timepoints. […] Twenty patients with FSGS were enrolled in the study if the inclusion and exclusion criteria of Example 1 were met.

[4] = test system: subjects with DKD; conditions: RADAR Phase 2b, cited from earlier work
[5] = daily dose 0.75 mg, dose-range finding studies and exposure-response analyses

In the case of CCCCN(CCCC)C(=O)CN1C[C@H](c2ccc3c(c2)OCO3)[C@@H](C(=O)O)[C@@H]1c1ccc(OC)cc1 [Atrasentan, (2R,3R,4S)-4-(1,3-benzodioxol-5-yl)-1-[2-(dibutylamino)-2-oxoethyl]-2-(4-methoxyphenyl)pyrrolidine-3-carboxylic acid], the Ctrough range [1] is listed as 1.2 to 2.2 ng/mL, the UACR [2, 5] is listed as “marked reduction” and the fluid retention [2, 5] is listed as “only modest fluid retention”. For the same compound, the “risk of renal events (doubling of serum creatinine or end-stage kidney disease)” value ([2]; patients with diabetic kidney disease) was “significantly reducing the risk of renal events”, the “most common adverse events associated with treatment” value ([2]; subjects with DKD) was “fluid retention, hemodilution, and vasodilation” and the “reduction in UPCR compared the baseline measurement” value [3] was 38.3%. For the same compound, the “fluid retention (body weight, edema incidence, treatment discontinuations)” value ([4]; 0.75 mg dose) was “only minimal evidence for fluid retention”, the proteinuria reduction ([4]; 0.75 mg dose) was 35% and the “fluid retention related adverse events” value ([4]; 1.25 mg dose) was “greater fluid retention related adverse events including treatment discontinuation”. The proteinuria reduction ([4]; 1.25 mg dose) was 38%.
